Source: ChEMBL document CHEMBL4266063, “Synthesis of Artemisinin-Estrogen Hybrids Highly Active against HCMV, P. falciparum, and Cervical and Breast Cancer” (ACS Med Chem Lett, 2018)

How the values were obtained:
HFF = test: Cytotoxicity against HFF measured over 7 days by microscopic analysis; type: cell-based; details: human, 168 h
SiHa = test: Antiproliferative activity against human SiHa cells after 72 hrs by MTT assay; type: functional, cell-based
T47D = test: Antiproliferative activity against human T47D cells after 72 hrs by MTT assay; type: functional, cell-based
HeLa = test: Antiproliferative activity against human HeLa cells after 72 hrs by MTT assay; type: functional, cell-based
Plasmodium falciparum [1] = test: Antimalarial activity against synchronized ring stage of Plasmodium falciparum 3D7 infected in human erythrocytes after 72 hrs by SYBR Green1 dye based fluorescence assay; type: functional, organism-based; details: 3D7, 72 h
MCF7 = test: Antiproliferative activity against human MCF7 cells after 72 hrs by MTT assay; type: functional, cell-based; details: MCF7, 72 h
MDA-MB-361 = test: Antiproliferative activity against human MDA-MB-361 cells after 72 hrs by MTT assay; type: functional, cell-based; details: MDA-MB-361, 72 h
Human betaherpesvirus 5 = test: Antiviral activity against GFP-fused Human cytomegalovirus AD169 infected in HFF measured 7 days post infection; type: functional, organism-based; details: Human betaherpesvirus 5, AD169, HFF, 168 h
MDA-MB-231 = test: Antiproliferative activity against human MDA-MB-231 cells after 72 hrs by MTT assay; type: functional, cell-based; details: MDA-MB-231, 72 h
C-33-A = test: Antiproliferative activity against human C33A cells after 72 hrs by MTT assay; type: functional, cell-based
Plasmodium falciparum [2] = test: Potency index, ratio of chloroquine EC50 to test compound EC50 for synchronized ring stage of Plasmodium falciparum 3D7 infected in human erythrocytes; type: functional

| SMILES | Activity (HFF) | EC50 (SiHa) [µM] | EC50 (T47D) [µM] | EC50 (HeLa) [µM] | EC50 (Plasmodium falciparum [1]) [µM] | EC50 (MCF7) [µM] | EC50 (MDA-MB-361) [µM] | EC50 (Human betaherpesvirus 5) [µM] | EC50 (MDA-MB-231) [µM] | EC50 (C-33-A) [µM] | Ratio EC50 (Plasmodium falciparum [2]) |
| --- | --- | --- | --- | --- | --- | --- | --- | --- | --- | --- | --- |
| COc1ccc2c(c1)CC[C@@H]1[C@@H]2CC[C@]2(C)[C@@H](O)[C@H](NC(=O)CCC(=O)O[C@@H]3O[C@@H]4O[C@@]5(C)CC[C@H]6[C@H](C)CC[C@@H]([C@H]3C)[C@@]46OO5)C[C@@H]12 | Non-Toxic | 26 | 0.74 | 11.5 | 0.0038 | 4.69 | 0.64 | 2.44 | 6.89 | 0.87 | 2 |
| COc1ccc2c(c1)CC[C@@H]1[C@@H]2CC[C@]2(C)[C@@H](O)[C@H](N)C[C@@H]12 | – | 17.4 | 5.56 | 13.3 | – | 11.9 | 4.58 | – | 16 | 13.2 | – |
| COc1ccc2c(c1)CC[C@@H]1[C@@H]2CC[C@]2(C)C(=O)[C@H](n3cc(CO[C@H]4O[C@@H]5O[C@@]6(C)CC[C@H]7[C@H](C)CC[C@@H]([C@H]4C)[C@@]57OO6)nn3)C[C@@H]12 | Non-Toxic | 28.9 | 0.16 | 15.4 | 0.0131 | 1.77 | 0.17 | 0.24 | 1.78 | 2.05 | – |
| C[C@H]1[C@@H](CC(=O)OC[C@H]2C[C@H]3[C@@H]4CCc5cc(OCc6ccccc6)ccc5[C@H]4CC[C@]3(C)[C@H]2O)O[C@@H]2O[C@@]3(C)CC[C@H]4[C@H](C)CC[C@@H]1[C@@]24OO3 | Non-Toxic | 16.1 | 0.93 | 14.2 | 0.129 | 0.45 | 0.18 | 0.22 | 0.86 | 0.15 | – |
| C[C@]12CC[C@@H]3c4ccc(OCc5ccccc5)cc4CC[C@H]3[C@@H]1C[C@H](CO)[C@@H]2O | – | 7.75 | 8.32 | 12.8 | 17.2 | 12.9 | 2.77 | – | 12.8 | 12.2 | – |
| COc1ccc2c(c1)CC[C@@H]1[C@@H]2CC[C@]2(C)[C@@H](O)[C@H](NC(=O)O[C@H]3O[C@@H]4O[C@@]5(C)CC[C@H]6[C@H](C)CC[C@@H]([C@H]3C)[C@@]46OO5)C[C@@H]12 | Non-Toxic | 6.21 | 1.17 | 1.65 | 0.0077 | 1.02 | 0.69 | 0.23 | 1.85 | 0.57 | – |
| C[C@H]1[C@H](OC(=O)CCC(=O)OC[C@H]2C[C@H]3[C@@H]4CCc5cc(OCc6ccccc6)ccc5[C@H]4CC[C@]3(C)[C@H]2O)O[C@@H]2O[C@@]3(C)CC[C@H]4[C@H](C)CC[C@@H]1[C@@]24OO3 | Non-Toxic | 28.4 | 0.22 | > 30 | 0.0342 | 0.76 | 0.2 | 0.38 | 2.3 | 1.73 | – |
| COc1ccc2c(c1)CC[C@@H]1[C@@H]2CC[C@]2(C)C(=O)[C@H](N=[N+]=[N-])C[C@@H]12 | – | > 30 | > 30 | > 30 | > 50 | > 30 | > 30 | – | > 30 | > 30 | – |
| C[C@@H]1CC[C@H]2[C@@H](C)C(=O)O[C@@H]3O[C@@]4(C)CC[C@@H]1[C@]32OO4 [ARTEMISININ] | – | – | – | – | – | – | – | > 10 | – | – | – |
| C[C@H]1[C@@H](O)O[C@@H]2O[C@@]3(C)CC[C@H]4[C@H](C)CC[C@@H]1[C@@]24OO3 [ARTENIMOL] | – | 29.8 | 4.6 | 10.5 | – | 8.24 | 1.71 | > 10 | 10.7 | 1.71 | – |
| C[C@H]1[C@H](OC(=O)CCC(=O)O)O[C@@H]2O[C@@]3(C)CC[C@H]4[C@H](C)CC[C@@H]1[C@@]24OO3 [ARTESUNATE] | – | > 30 | 2.22 | 12 | 0.0089 | 4.21 | 2.27 | – | 10 | 1.83 | – |
